The source of these data is paper PMC11438102, “Modulation of cannabinoid receptor 2 alters neuroinflammation and reduces formation of alpha-synuclein aggregates in a rat model of nigral synucleinopathy” (Journal of Neuroinflammation, 2024).

Data set [1] can be described thus: Blood brain barrier penetration / pharmacokinetics of SMM-189 in mice. The format is in vivo. The settings on record: 6 mg/kg. The protocol:
Analysis of the brain-to-blood ratios of SMM-189 were performed by Sai Life Sciences Limited (Telangana, India). All procedures of the study were in accordance with the guidelines provided by the Committee for the Purpose of Control and Supervision of Experiments on Animals (CPCSEA) as published in The Gazette of India, December 15, 1998. Prior approval of the Institutional Animal Ethics Committee (IAEC) was obtained before initiation of the study. In brief, 54 mice were weighed and divided as Group 1 (6 mg/kg, i.p.) and Group 2 (6 mg/kg, by oral (p.o.)). Animals in Group 1 and Group 2 were administered intraperitoneally and orally with SMM-189 solution formulation at 6 mg/kg in 5% Ethanol, 5% Cremophor and 90% Normal Saline, respectively. The blood samples were collected under light isoflurane anesthesia at 0.08, 0.25, 0.5, 1, 2, 4, 8, 12 and 24 h (i.p.) and 0.25, 0.5, 1, 2, 4, 6, 8, 12 and 24 h (p.o.) in labeled micro centrifuge tube containing K2EDTA as anticoagulant. After blood collection, plasma was harvested by centrifugation and stored at -70 °C until analysis. Immediately after collection of blood, brain samples were collected from set of three mice at each time point at 0.08, 0.25, 0.5, 1, 2, 4, 8, 12 and 24 h (Group 1; i.p.) and 0.25, 0.5, 1, 2, 4, 6, 8, 12 and 24 h (Group 2; p.o.). Brain samples were homogenized using ice-cold phosphate buffer saline (pH-7.4) in a ratio of 2 (buffer):1(brain); and homogenates were stored below − 70 ± 10 °C until analysis. Total homogenate volume was three times the brain weight. All samples were processed for analysis by protein precipitation using acetonitrile and analyzed with fit-for-purpose LC-MS/MS method (LLOQ = 1.02 ng/mL for plasma and 6.09 ng/g for brain).
Non-compartmental-analysis module in Phoenix WinNonlin® (Version 6.3) was used to assess the pharmacokinetic parameters. Maximum concentration (Cmax) and time to reach the maximum concentration (Tmax) were the observed values. The areas under the concentration time curve (AUClast and AUCinf) were calculated by linear trapezoidal rule. The terminal elimination rate constant, ke was determined by regression analysis of the linear terminal portion of the log plasma concentration-time curve. The terminal half-life (T1/2) was estimated as 0.693/ke.

A further data set deals with RAW264.7 macrophages. Description: Phagocytosis assay with pHrodo green E. coli bioparticles. Format: cell-based. The note with it: vs vehicle; for integrated density of GFP (phagocytosis of E. coli bioparticles): 100ng/mL LPS; for phagocytosis of E. coli bioparticles: 1 μg/mL LPS. On the procedure: The RAW264.7 macrophage cells (ATCC Cat# TIB-71, RRID: CVCL_0493) were grown in sterile media which consisted of DMEM high glucose, 10% FBS, 2mM L-glutamine, 1x Pen-strep and 1x sodium pyruvate in a humidified 5% CO2 incubator at 37°C. RAW264.7 were maintained in […] tissue culture flasks and plated at a density of 1 × 10^4 cells in triplicate in 96-well plates for assays. Cells were stimulated with either lipopolysaccharide (LPS O111:B4; Sigma Cat#L2630) at 100ng/mL or 1000ng/mL (750EU/mL or 7500 EU/mL, respectively). One hour prior to this stimulation the cells were pre-treated with the CB2 inverse agonist SMM-189 at 3μM or 7 μm or its vehicle. Specifically for cell culture experiments, SMM-189 was formulated with 40% ethanol (v/v), 20% tween-20 (v/v) and 40% saline (v/v). A phagocytosis assay was conducted 24 h after LPS.
The phagocytosis assay was performed using pHrodo green E. coli bioparticles (Invitrogen Cat# P35366) according to the manufacturer’s instructions. Five images per well were then collected every 30 min for 24 h on an EVOS M7000 microscope (Invitrogen, ThermoFisher Scientific). The cells were maintained for this duration using an on-stage incubator kept at 37°C and 5% CO2. Analysis of the collected images was performed using EVOS Celleste software (version 5.0), which counted the cells and then measured the integrated optical density of fluorescence within each well over the 24-hour time course. Analysis was conducted on the average integrated optical density across triplicate wells. Results were consistent across duplicate experimental replicates.

The Cmax is the highest concentration seen after dosing. Usually Tmax stands for the time from dosing to the highest level. `O=C(c1ccccc1)c1cc(O)c(-c2cc(Cl)cc(Cl)c2)c(O)c1` [SMM-189]: the Cmax is listed as 204.64 ng/mL in data set [1] (brain, i.p.); 70.34 ng/mL in data set [1] (brain, p.o.); 277.07 ng/mL in data set [1] (plasma, i.p.); 43.15 ng/mL in data set [1] (plasma, p.o.). The time to peak (Tmax) in data set [1] (brain, i.p.) turned out to be 30 min; in data set [1] (brain, p.o.), 15 min; in data set [1] (plasma, i.p.) it was 30 min; in data set [1] (plasma, p.o.) it was 15 min. Further, the “Brain/plasma ratio (Cmax)” value was determined as 0.74 in data set [1] (i.p.) and 1.63 in data set [1] (p.o.). The “integrated density of GFP (phagocytosis of E. coli bioparticles)” value in the data set with RAW264.7 macrophages (pre-treatment 3 μm, p = 0.0024) is on record as “significantly increased”; in the data set with RAW264.7 macrophages (pre-treatment 7 μm, p < 0.0001), “significantly increased”. The “phagocytosis of E. coli bioparticles” value in the data set with RAW264.7 macrophages (3 μm) and with RAW264.7 macrophages (7 μm) was “intensified” each time.
